Results as given in US9974306B2, “Herbicidal combinations for tolerant soybean cultures” (priority 2012, dated 2018).

What was measured:
GLXMA GM_W336 = experiment: Post-emergence greenhouse treatment, visual rating of effect on W336 transgenic (HPPD inhibitor tolerant) soybean; type: in vivo; settings: for Effect (%): GLXMA GM_W336
Protocol: (§1) The soybeans were grown under the same conditions as described above. The following three varieties were used in the tests:
(§2) 1) W336—Transgenic soybean plants comprising a chimeric gene encoding a W336 mutant HPPD protein of Pseudomonas fluorescens (U.S. Pat. No. 6,245,968) fused to the optimized transit peptide for chloroplast targeting (U.S. Pat. No. 5,510,471), and under the control of the 35S CaMV promoter (Odell et al., 1985, Nature 313: 810-812) fused to the 5′ enhancer sequence of TEV (Carrington and Freed, 1990, J. Virol. 64: 1590-1597), with as 3′ transcript termination and polyadenylation region that of the CaMV 35S gene (Sanfacon et al., 1991, Genes & Development 5:141-149), abbreviated as “W336 soybean plants” herein. 2) MERLIN—conventional 3) PROTINA—conventional
(§3) Two sets of soybeans reaching different growth stages at application time were prepared: one up to growth stage BBCH 11 (1-2 leaf stage) and the other up to BBCH 13 (3-4 leaf stage). Both soybean sets were treated at the same time (together with the weeds) but they were evaluated separately.
(§4) The applications were performed by post emergence treatments on the planted pots using a spray volume of 300 L water per hectare. The herbicides were applied alone and in combination as in the tables below.
(§5) The trial was conducted in the greenhouse ensuring optimal growing conditions.
(§6) The herbicidal effects were assessed 14 and 24 days following application by visual ratings comparing treated and untreated plants (0%=no effect to 100%=complete die-off).
(§7) The visual ratings are used to calculate interactions between treatments alone and combination treatments according to S. R. Colby, Weeds 15, pages 20 to 22 (1967).

GLXMA Protina = experiment: Post-emergence greenhouse treatment, visual rating of effect on conventional soybean PROTINA; type: in vivo; settings: for Effect (%): GLXMA Protina
Protocol: as §1, §2, §3, §4, §5, §6, §7

GLXMA Merlin = experiment: Post-emergence greenhouse treatment, visual rating of effect on conventional soybean MERLIN; type: in vivo; settings: for Effect (%): GLXMA Merlin, assessment 24 d
Protocol: as §1, §2, §3, §4, §5, §6, §7

BRAPP = experiment: Post-emergence greenhouse treatment, visual rating of herbicidal effect; type: in vivo, Brachiaria platyphylla; settings: for Effect (%): BRAPP
Protocol: (§8) Seeds of grass and broadleaf weeds were sown in pots (diameter: 8 cm) filled with a sandy loam soil. For the herbicide post-emergent treatment, the weeds were grown under optimal conditions up to a growth stage of BBCH 11 (1-2 leaf stage) to 14 (3-4 leaf stage) depending on species. The following weeds were used:
as §4, §5, §6, §7

SETFA = experiment: as above; type: in vivo, Setaria faberi; settings: 1-2 leaf
Protocol: as §8, §4, §5, §6, §7

SETVI = experiment: as above; type: in vivo, Setaria viridis; settings: 1-2 leaf; for Effect: 24 d; for Effect (%): SETVI, assessment 24 d
Protocol: as §8, §4, §5, §6, §7

SORHA = experiment: as above; type: in vivo, Sorghum halepense
Protocol: as §8, §4, §5, §6, §7

BIDPI = experiment: as above; type: in vivo, Bidens pilosa
Protocol: as §8, §4, §5, §6, §7

EPHHL = experiment: as above; type: in vivo, Euphorbia heterophylla
Protocol: as §8, §4, §5, §6, §7

PHBPU = experiment: as above; type: in vivo, Pharbitis purpurea
Protocol: as §8, §4, §5, §6, §7

POLCO = experiment: as above; type: in vivo, Polygonum convolvulus; settings: for Effect (%): POLCO, (B1) alone 40 g a.i./ha
Protocol: as §8, §4, §5, §6, §7

[1] = 1-2 leaf, 14 d, 20 g a.i./ha alone
[2] = 1-2 leaf, 24 d, 20 g a.i./ha alone
[3] = 1-2 leaf, 24 d, 40 g a.i./ha alone
[4] = 1-2 leaf, 24 d, 80 g a.i./ha alone
[5] = 3-4 leaf, 14 d, 20 g a.i./ha alone
[6] = 3-4 leaf, 14 d, 80 g a.i./ha alone
[7] = 1-2 leaf, assessment 24 d, (B1) alone 40 g a.i./ha
[8] = 1-2 leaf, assessment 24 d, (B1) alone 80 g a.i./ha
[9] = 3-4 leaf, assessment 14 d, (B1) alone 20 g a.i./ha
[10] = 3-4 leaf, assessment 14 d, (B1) alone 40 g a.i./ha

CSc1nnc(C(C)(C)C)c(=O)n1N [(B1), 4-amino-6-tert-butyl-4,5-dihydro-3-methylthio-1,2,4-triazin-5-one]
Effect (GLXMA GM_W336; [1]): 20%
Effect (GLXMA GM_W336; [2]): 10%
Effect (GLXMA GM_W336; [3]): 10%
Effect (GLXMA GM_W336; [4]): 30%
Effect (GLXMA GM_W336; 1-2 leaf, 14 d, 80 g a.i./ha): 25%
Effect (GLXMA GM_W336; 1-2 leaf, 24 d, 40 g a.i./ha): 10%
Effect (GLXMA GM_W336; 1-2 leaf, 24 d, 80 g a.i./ha): 30%
Effect (GLXMA GM_W336; [5]): 35%
Effect (GLXMA GM_W336; [6]): 35%
Effect (GLXMA GM_W336; 3-4 leaf, 14 d, 20 g a.i./ha): 35%
Effect (GLXMA GM_W336; 3-4 leaf, 14 d, 40 g a.i./ha): 35%
Effect (GLXMA GM_W336; 3-4 leaf, 24 d, 20 g a.i./ha): 30%
Effect (%) (GLXMA GM_W336; [7]): 10%
Effect (%) (GLXMA GM_W336; [8]): 30%
Effect (%) (GLXMA GM_W336; [9]): 35%
Effect (%) (GLXMA GM_W336; [10]): 35%
Effect (GLXMA Protina; [1]): 20%
Effect (GLXMA Protina; [2]): 15%
Effect (GLXMA Protina; [3]): 15%
Effect (GLXMA Protina; [4]): 40%
Effect (GLXMA Protina; 1-2 leaf, 14 d, 80 g a.i./ha): 40%
Effect (GLXMA Protina; 1-2 leaf, 24 d, 80 g a.i./ha): 40%
Effect (GLXMA Protina; [5]): 25%
Effect (GLXMA Protina; 3-4 leaf, 14 d, 20 g a.i./ha): 25%
Effect (GLXMA Protina; 3-4 leaf, 14 d, 40 g a.i./ha): 35%
Effect (GLXMA Protina; 3-4 leaf, 24 d, 20 g a.i./ha): 35%
Effect (%) (GLXMA Protina; [7]): 15%
Effect (%) (GLXMA Protina; [9]): 25%
Effect (%) (GLXMA Protina; [10]): 35%
Effect (GLXMA Merlin; 1-2 leaf, 24 d, 40 g a.i./ha): 0%
Effect (GLXMA Merlin; [6]): 50%
Effect (GLXMA Merlin; 3-4 leaf, 24 d, 20 g a.i./ha): 40%
Effect (%) (GLXMA Merlin; 1-2 leaf, (B1) alone 40 g a.i./ha): 0%
Effect (%) (GLXMA Merlin; 1-2 leaf, (B1) alone 80 g a.i./ha): 10%
Effect (BRAPP; [1]): 15%
Effect (BRAPP; [2]): 10%
Effect (BRAPP; [3]): 10%
Effect (BRAPP; 3-4 leaf, 14 d, 20 g a.i./ha): 15%
Effect (BRAPP; 3-4 leaf, 14 d, 40 g a.i./ha): 45%
Effect (BRAPP; 3-4 leaf, 24 d, 20 g a.i./ha): 10%
Effect (%) (BRAPP; [7]): 10%
Effect (%) (BRAPP; [8]): 35%
Effect (%) (BRAPP; [9]): 15%
Effect (%) (BRAPP; [10]): 45%
Effect (SETFA; 14 d, 80 g a.i./ha): 30%
Effect (SETFA; 24 d, 40 g a.i./ha): 10%
Effect (%) (SETFA; SETFA, assessment 24 d, (B1) alone 40 g a.i./ha): 10%
Effect (SETVI; 80 g a.i./ha alone): 10%
Effect (SETVI; 80 g a.i./ha): 10%
Effect (%) (SETVI; (B1) alone 40 g a.i./ha): 50%
Effect (%) (SETVI; (B1) alone 80 g a.i./ha): 10%
Effect (SORHA; [4]): 10%
Effect (SORHA; 1-2 leaf, 14 d, 80 g a.i./ha): 20%
Effect (SORHA; 1-2 leaf, 24 d, 80 g a.i./ha): 10%
Effect (SORHA; [5]): 20%
Effect (SORHA; [6]): 20%
Effect (SORHA; 3-4 leaf, 14 d, 20 g a.i./ha): 20%
Effect (SORHA; 3-4 leaf, 24 d, 20 g a.i./ha): 0%
Effect (%) (SORHA; SORHA, 1-2 leaf, assessment 24 d, (B1) alone 40 g a.i./ha): 10%
Effect (BIDPI; [2]): 5%
Effect (BIDPI; [3]): 45%
Effect (BIDPI; 3-4 leaf, 14 d, 20 g a.i./ha): 40%
Effect (BIDPI; 3-4 leaf, 24 d, 20 g a.i./ha): 5%
Effect (%) (BIDPI; BIDPI, 3-4 leaf, assessment 14 d, (B1) alone 20 g a.i./ha): 40%
Effect (EPHHL; [1]): 45%
Effect (EPHHL; [2]): 20%
Effect (EPHHL; [4]): 65%
Effect (EPHHL; 3-4 leaf, 24 d, 20 g a.i./ha): 20%
Effect (PHBPU; [2]): 0%
Effect (PHBPU; 1-2 leaf, 24 d, 40 g a.i./ha): 0%
Effect (PHBPU; 3-4 leaf, 14 d, 40 g a.i./ha): 10%
Effect (POLCO; [4]): 20%
Effect (POLCO; [5]): 10%
Effect (POLCO; [6]): 40%
Effect (POLCO; 3-4 leaf, 14 d, 20 g a.i./ha): 10%
Effect (POLCO; 3-4 leaf, 24 d, 20 g a.i./ha): 10%
Effect (%) (POLCO; 1-2 leaf, assessment 24 d): 15%
Effect (%) (POLCO; 3-4 leaf, assessment 14 d): 40%
